Laboratory results reported in patent US8980323B2, “Hydrophilic matrix containing poorly water-soluble compound and method for producing the same” (FUJIFILM Corporation, priority 2006, dated 2015).
In brackets after ≈: the same amount, converted by molar mass. Like-named read-outs stand apart in the source and are kept apart here.

Assays:
[1] = Solubility in 1,1,1,3,3,3-hexafluoro-2-propanol (HFIP); conditions: for solubility: 1,1,1,3,3,3-hexafluoro-2-propanol (HFIP), organic solvent or mixture, thermodynamic from solid
Experimental: The solubility in hexafluoroisopropanol is determined as described below according to the present invention. A mixture is prepared by adding a compound to 1,1,1-3,3,3-hexafluoro-2-propanol while changing the concentration of the compound in a stepwise manner, and the concentration at which precipitation takes place is examined. Thus, the solubility of the compound in 1,1,1-3,3,3-hexafluoro-2-propanol is determined. In addition, a soluble/insoluble state is determined by confirming the presence of a deposit after centrifugation of the above mixture with a micro centrifuge (Chibitan II XX42CF00T produced by Tech-Jam) for 20 seconds.

[2] = Stereo-microscopic observation of drug-containing hydrophilic matrix films and gels (finely-dispersed state / precipitation); type: physicochemical; parameters: key: ∘: contained in a finely-dispersed state; Δ: partially precipitated; conditions: gelatin film cast from HFIP, stereo microscope; for State of drug in gelatin film, Drug/gelatin mass proportion 0.1%: drug/gelatin 0.1%; for State of drug in gelatin film, Drug/gelatin mass proportion 1.0%: drug/gelatin 1.0%; for State of drug in gelatin film, Drug/gelatin mass proportion 5.0%: drug/gelatin 5.0%
Experimental: The term “in a finely-dispersed state” used herein refers to a condition in which the contained poorly water-soluble drug, which is a compound of a size that cannot be detected with a stereo microscope (MZ16A produced by Leica), is uniformly dispersed in a matrix, or a condition in which such a drug is in a molecular dispersion state in a matrix.
Paclitaxel (produced by LCL laboratories) was used as a poorly water-soluble compound. […] 1,1,1,3,3,3-hexafluoro-2-propanol solution (HFIP; 200 μL) containing paclitaxel (1 mg/mL) and gelatin (100 mg/mL; PSK gelatin produced by Nippi Inc.) was coated on a polypropylene dish (2 cm×2 cm×500 μm), followed by drying at an ordinary temperature for 15 hours. Thus, a paclitaxel-containing gelatin film was produced.
Upon observation with a stereo microscope (produced by Leica, MZ16A), precipitation of paclitaxel was not observed. […] In addition, the gel produced with HFIP and subjected to crosslinking with transglutaminase and water swelling was transparent.
Observation was carried out in the same manner as in Example 2.
Drug-containing gelatin films were produced in the same manner as in Example 1 except that paclitaxel used in Example 1 was replaced by drugs with concentrations listed in Table 1 below. Observation was carried out in the same manner as in Example 2. […]

[3] = upper dissolution limit - lower precipitation limit, samples at 30, 50, 100, 200, 500 mg/ml

Compound	Solubility in HFIP [1, 3]	State of drug in gelatin film, Drug/gelatin mass proportion 0.1% [2]	State of drug in gelatin film, Drug/gelatin mass proportion 1.0% [2]	State of drug in gelatin film, Drug/gelatin mass proportion 5.0% [2]	solubility [1]	Solubility in HFIP [1]
C=C1CC[C@H](O)C/C1=C/C=C1\CCC[C@]2(C)[C@@H]([C@H](C)CCCC(C)C)CC[C@@H]12 [Vitamin D3]	200 to 500 mg/mL	∘	∘	∘	–	–
CC(=O)O[C@H]1C(=O)[C@@]2(C)[C@H]([C@H](OC(=O)c3ccccc3)[C@]3(O)C[C@H](OC(=O)[C@H](O)[C@@H](NC(=O)c4ccccc4)c4ccccc4)C(C)=C1C3(C)C)[C@]1(OC(C)=O)CO[C@@H]1C[C@@H]2O [Paclitaxel]	200 to 500 mg/mL	∘	∘	∘	200 to 500 mg/mL (≈ 234 to 586 mM)	–
O=C1NC(=O)C(c2ccccc2)(c2ccccc2)N1 [Phenytoin]	–	∘	∘	Precipitated	50 to 100 mg/mL (≈ 198 to 396 mM)	–
CC(=O)Oc1ccccc1C(=O)O [Aspirin]	–	∘	∘	∘	200 to 500 mg/mL (≈ 1110 to 2780 mM)	–
CN(C)c1ccc(N=Nc2ccccc2)cc1 [Methyl yellow]	50 to 100 mg/mL	∘	∘	Precipitated	–	–
CC(=O)O[C@@]12CO[C@@H]1C[C@H](O)[C@@]1(C)C(=O)[C@H](O)C3=C(C)[C@@H](OC(=O)[C@H](O)[C@@H](NC(=O)OC(C)(C)C)c4ccccc4)C[C@@](O)([C@@H](OC(=O)c4ccccc4)[C@H]21)C3(C)C [Docetaxel]	–	∘	∘	∘	100 to 200 mg/mL (≈ 124 to 248 mM)	–
CO[C@H]1C[C@@H]2CC[C@@H](C)[C@@](O)(O2)C(=O)C(=O)N2CCCC[C@H]2C(=O)O[C@H]([C@H](C)C[C@@H]2CC[C@@H](O)[C@H](OC)C2)CC(=O)[C@H](C)/C=C(\C)[C@@H](O)[C@@H](OC)C(=O)[C@H](C)C[C@H](C)/C=C/C=C/C=C/1C [Rapamycin]	–	–	–	–	200 to 500 mg/mL (≈ 219 to 547 mM)	–
CCN(CC)c1ccc2c(C)cc(=O)oc2c1 [Coumarin 1]	200 to 500 mg/mL	∘	∘	∘	–	–
CC12CCC(C(=O)C1=O)C2(C)C (centres unmarked) [Camphorquinone]	–	∘	∘	∘	200 to 500 mg/mL (≈ 1200 to 3010 mM)	–
CCN(CC)c1ccc2cc(-c3nc4ccccc4s3)c(=O)oc2c1 [Coumarin 6]	–	∘	Precipitated	Precipitated	–	30 to 50 mg/mL
